# Reference: ChEMBL document CHEMBL3526057 (Drug Metab Dispos, 2011)
# How the values were obtained:
# Format in all cases: ADME
# Conditions in all cases: recombinant enzyme, 1 h
# Cytochrome P450 2C19 [1] = molecular target: T1, Cytochrome P450 2C19 (Homo sapiens, UniProt P33261, A161P); test: Activity of human recombinant CYP2C19 A161P mutant expressed in Saccharomyces cerevisiae BJ5457 assessed as omeprazole 5'-hydroxylation per pmol protein at 100 uM after 60 mins
# Cytochrome P450 2C19 [2] = molecular target: T2, Cytochrome P450 2C19 (Homo sapiens, UniProt P33261, I19L); test: Activity of human recombinant CYP2C19.15 mutant expressed in Saccharomyces cerevisiae BJ5457 assessed as omeprazole 5'-hydroxylation per pmol protein at 100 uM after 60 mins
# Cytochrome P450 2C19 [3] = molecular target: T3, Cytochrome P450 2C19 (Homo sapiens, UniProt P33261, L17P); test: Activity of human recombinant CYP2C19.14 mutant expressed in Saccharomyces cerevisiae BJ5457 assessed asomeprazole 5'-hydroxylation per pmol protein after 60 mins
# Cytochrome P450 2C19 [4] = molecular target: T4, Cytochrome P450 2C19 (Homo sapiens, UniProt P33261, F168L); test: Activity of human recombinant CYP2C19 F168L mutant expressed in Saccharomyces cerevisiae BJ5457 assessed as omeprazole 5'-hydroxylation per pmol protein at 5 uM after 60 mins
# Cytochrome P450 2C19 [5] = molecular target: Cytochrome P450 2C19 (Homo sapiens, UniProt P33261, D360N); test: Activity of human recombinant CYP2C19 D360N mutant expressed in Saccharomyces cerevisiae BJ5457 assessed as omeprazole 5'-hydroxylation per pmol protein at 100 uM after 60 mins
# Cytochrome P450 2C19 [6] = molecular target: T2, Cytochrome P450 2C19; test: Activity of human recombinant CYP2C19.15 mutant expressed in Saccharomyces cerevisiae BJ5457 assessed asomeprazole 5'-hydroxylation after 60 mins
# Cytochrome P450 2C19 [7] = molecular target: T3, Cytochrome P450 2C19; test: Activity of human recombinant CYP2C19.14 mutant expressed in Saccharomyces cerevisiae BJ5457 assessed as omeprazole 5'-hydroxylation per pmol protein at 100 uM after 60 mins
# Cytochrome P450 2C19 [8] = molecular target: T5, Cytochrome P450 2C19 (Homo sapiens, UniProt P33261); test: Activity of human recombinant CYP2C19.1A mutant expressed in Saccharomyces cerevisiae BJ5457 assessed asomeprazole 5'-hydroxylation after 60 mins
# [9] = Activity of human recombinant CYP2C19.6 mutant expressed in Saccharomyces cerevisiae BJ5457 assessed as omeprazole 5'-hydroxylation per pmol protein at 5 uM after 60 mins
# Cytochrome P450 2C19 [10] = molecular target: T5, Cytochrome P450 2C19; test: Activity of human recombinant CYP2C19.1B mutant expressed in Saccharomyces cerevisiae BJ5457 assessed as omeprazole 5'-hydroxylation per pmol protein at 100 uM after 60 mins
# Cytochrome P450 2C19 [11] = molecular target: Cytochrome P450 2C19 (Homo sapiens, UniProt P33261, R150H); test: Activity of human recombinant CYP2C19.11 mutant expressed in Saccharomyces cerevisiae BJ5457 assessed as intrinisic clearance foromeprazole 5'-hydroxylation per pmol protein after 60 mins
# Cytochrome P450 2C19 [12] = molecular target: T6, Cytochrome P450 2C19 (Homo sapiens, UniProt P33261, R144H); test: Activity of human recombinant CYP2C19.9 mutant expressed in Saccharomyces cerevisiae BJ5457 assessed asomeprazole 5'-hydroxylation per pmol protein after 60 mins
# Cytochrome P450 2C19 [13] = molecular target: T6, Cytochrome P450 2C19; test: Activity of human recombinant CYP2C19.9 mutant expressed in Saccharomyces cerevisiae BJ5457 assessed as intrinisic clearance foromeprazole 5'-hydroxylation per pmol protein after 60 mins
# Cytochrome P450 2C19 [14] = molecular target: T6, Cytochrome P450 2C19; test: Activity of human recombinant CYP2C19.9 mutant expressed in Saccharomyces cerevisiae BJ5457 assessed as omeprazole 5'-hydroxylation per pmol protein at 100 uM after 60 mins
# Cytochrome P450 2C19 [15] = molecular target: T7, Cytochrome P450 2C19 (Homo sapiens, UniProt P33261, W212C); test: Activity of human recombinant CYP2C19 W212C mutant expressed in Saccharomyces cerevisiae BJ5457 assessed asomeprazole 5'-hydroxylation after 60 mins
# Cytochrome P450 2C19 [16] = molecular target: Cytochrome P450 2C19 (Homo sapiens, UniProt P33261, S51G); test: Activity of human recombinant CYP2C19.19 mutant expressed in Saccharomyces cerevisiae BJ5457 assessed as omeprazole 5'-hydroxylation per pmol protein at 5 uM after 60 mins
# Cytochrome P450 2C19 [17] = molecular target: T8, Cytochrome P450 2C19 (Homo sapiens, UniProt P33261, R329H); test: Activity of human recombinant CYP2C19.18 mutant expressed in Saccharomyces cerevisiae BJ5457 assessed as omeprazole 5'-hydroxylation per pmol protein at 100 uM after 60 mins
# Cytochrome P450 2C19 [18] = molecular target: Cytochrome P450 2C19 (Homo sapiens, UniProt P33261, E122A); test: Activity of human recombinant CYP2C19 E122A mutant expressed in Saccharomyces cerevisiae BJ5457 assessed as omeprazole 5'-hydroxylation per pmol protein at 5 uM after 60 mins
# Cytochrome P450 2C19 [19] = molecular target: T9, Cytochrome P450 2C19 (Homo sapiens, UniProt P33261, E92D); test: Activity of human recombinant CYP2C19 E92D mutant expressed in Saccharomyces cerevisiae BJ5457 assessed as omeprazole 5'-hydroxylation per pmol protein at 5 uM after 60 mins
# Cytochrome P450 2C19 [20] = molecular target: T7, Cytochrome P450 2C19; test: Activity of human recombinant CYP2C19 W212C mutant expressed in Saccharomyces cerevisiae BJ5457 assessed as intrinisic clearance foromeprazole 5'-hydroxylation per pmol protein after 60 mins
# Cytochrome P450 2C19 [21] = molecular target: T4, Cytochrome P450 2C19; test: Activity of human recombinant CYP2C19 F168L mutant expressed in Saccharomyces cerevisiae BJ5457 assessed as intrinisic clearance foromeprazole 5'-hydroxylation per pmol protein after 60 mins
# Cytochrome P450 2C19 [22] = molecular target: Cytochrome P450 2C19 (Homo sapiens, UniProt P33261, R410C); test: Activity of human recombinant CYP2C19.13 mutant expressed in Saccharomyces cerevisiae BJ5457 assessed as omeprazole 5'-hydroxylation per pmol protein at 5 uM after 60 mins
# Cytochrome P450 2C19 [23] = molecular target: T8, Cytochrome P450 2C19; test: Activity of human recombinant CYP2C19.18 mutant expressed in Saccharomyces cerevisiae BJ5457 assessed as intrinisic clearance foromeprazole 5'-hydroxylation per pmol protein after 60 mins
# Cytochrome P450 2C19 [24] = molecular target: T4, Cytochrome P450 2C19; test: Activity of human recombinant CYP2C19 F168L mutant expressed in Saccharomyces cerevisiae BJ5457 assessed asomeprazole 5'-hydroxylation per pmol protein after 60 mins
# Cytochrome P450 2C19 [25] = molecular target: T5, Cytochrome P450 2C19; test: Activity of human recombinant CYP2C19.1A mutant expressed in Saccharomyces cerevisiae BJ5457 assessed as intrinisic clearance foromeprazole 5'-hydroxylation per pmol protein after 60 mins
# Cytochrome P450 2C19 [26] = molecular target: T9, Cytochrome P450 2C19; test: Activity of human recombinant CYP2C19 E92D mutant expressed in Saccharomyces cerevisiae BJ5457 assessed asomeprazole 5'-hydroxylation per pmol protein after 60 mins
# Cytochrome P450 2C19 [27] = molecular target: Cytochrome P450 2C19 (Homo sapiens, UniProt P33261, M74T); test: Activity of human recombinant CYP2C19 M74T mutant expressed in Saccharomyces cerevisiae BJ5457 assessed asomeprazole 5'-hydroxylation per pmol protein after 60 mins
# Cytochrome P450 2C19 [28] = molecular target: Cytochrome P450 2C19 (Homo sapiens, UniProt P33261, P227L); test: Activity of human recombinant CYP2C19.10 mutant expressed in Saccharomyces cerevisiae BJ5457 assessed as omeprazole 5'-hydroxylation per pmol protein at 5 uM after 60 mins
# Cytochrome P450 2C19 [29] = molecular target: T1, Cytochrome P450 2C19; test: Activity of human recombinant CYP2C19 A161P mutant expressed in Saccharomyces cerevisiae BJ5457 assessed as intrinisic clearance foromeprazole 5'-hydroxylation per pmol protein after 60 mins
# Cytochrome P450 2C19 [30] = molecular target: T8, Cytochrome P450 2C19; test: Activity of human recombinant CYP2C19.18 mutant expressed in Saccharomyces cerevisiae BJ5457 assessed as omeprazole 5'-hydroxylation per pmol protein at 5 uM after 60 mins
# Cytochrome P450 2C19 [31] = molecular target: T2, Cytochrome P450 2C19; test: Activity of human recombinant CYP2C19.15 mutant expressed in Saccharomyces cerevisiae BJ5457 assessed as intrinisic clearance foromeprazole 5'-hydroxylation per pmol protein after 60 mins
smiles,measurement,setting,value
COc1ccc2[nH]c([S+]([O-])Cc3ncc(C)c(OC)c3C)nc2c1 (stereo unspecified) [OMEPRAZOLE],Drug metabolism,Cytochrome P450 2C19 [1],1.39 pmol/min
same,Drug metabolism,Cytochrome P450 2C19 [2],7.81 pmol/min
same,Vmax,Cytochrome P450 2C19 [3],8.05 pmol/min
same,Drug metabolism,Cytochrome P450 2C19 [4],3.08 pmol/min
same,Drug metabolism,Cytochrome P450 2C19 [5],4.1 pmol/min
same,Km,Cytochrome P450 2C19 [6],6.78 µM
same,Drug metabolism,Cytochrome P450 2C19 [7],8.25 pmol/min
same,Km,Cytochrome P450 2C19 [8],5.42 µM
same,Drug metabolism,[9],metabolite_not_detected
same,Drug metabolism,Cytochrome P450 2C19 [10],5.36 pmol/min
same,CL,Cytochrome P450 2C19 [11],1.68 µL/min
same,Vmax,Cytochrome P450 2C19 [12],6.21 pmol/min
same,CL,Cytochrome P450 2C19 [13],0.62 µL/min
same,Drug metabolism,Cytochrome P450 2C19 [14],5.48 pmol/min
same,Km,Cytochrome P450 2C19 [15],11.2 µM
same,Drug metabolism,Cytochrome P450 2C19 [16],2.82 pmol/min
same,Drug metabolism,Cytochrome P450 2C19 [17],4.83 pmol/min
same,Drug metabolism,Cytochrome P450 2C19 [18],1.58 pmol/min
same,Drug metabolism,Cytochrome P450 2C19 [19],2.95 pmol/min
same,CL,Cytochrome P450 2C19 [20],0.18 µL/min
same,CL,Cytochrome P450 2C19 [21],0.94 µL/min
same,Drug metabolism,Cytochrome P450 2C19 [22],3.03 pmol/min
same,CL,Cytochrome P450 2C19 [23],1.3 µL/min
same,Vmax,Cytochrome P450 2C19 [24],6.05 pmol/min
same,CL,Cytochrome P450 2C19 [25],1.49 µL/min
same,Vmax,Cytochrome P450 2C19 [26],6.93 pmol/min
same,Vmax,Cytochrome P450 2C19 [27],4.03 pmol/min
same,Drug metabolism,Cytochrome P450 2C19 [28],1.94 pmol/min
same,CL,Cytochrome P450 2C19 [29],0.24 µL/min
same,Drug metabolism,Cytochrome P450 2C19 [30],2.21 pmol/min
same,CL,Cytochrome P450 2C19 [31],1.21 µL/min
